# Experimental data published in a melting point compilation (Tetko et al.; mined from patent text by program, amines drawn as free bases though some values may be those of a salt).
row,melting point,SMILES
1,125 to 127 °C,CC(C)(C)OC(=O)c1ccccc1-c1ccc(CNC(=O)C2(N)CCOCC2)cc1
2,135 to 137 °C,Cc1noc(C)c1Cn1cc(NC(=O)c2ccccn2)cn1
3,191 to 192 °C,Cc1nnc(-c2nn(-c3cccc(C(F)(F)F)c3)ccc2=O)n1-c1ccccc1
4,96 to 98 °C,COc1cccc2c1CCC(C#N)C2O (stereo unspecified)
5,171 to 172 °C,CC(C)C[C@H](NC(=O)c1cccs1)C(=O)N[C@@H](C(C)C)[C@@H](O)c1c(-c2ccccc2)c1=O
6,155 to 160 °C,Nc1nc2c(s1)CCN(CC=Cc1c[nH]c3ccccc13)CC2
7,158 to 159 °C,O=C1OCCN1CCN1CCN(C2Cc3cc(F)ccc3Sc3ccccc32)CC1 (stereo unspecified)
8,134 to 136 °C,O=Cc1cccc2c(Br)c3ccccc3cc12
9,196 to 197 °C,CCc1nn(C2CCCCC2)c2cc(C(=O)O)ccc12
10,147 to 149 °C,COc1ccc(C2CN(O)C3(C)CCCCC23)cc1OC (stereo unspecified)
11,44 to 47 °C,CC(C#N)CNc1ccccc1[N+](=O)[O-] (stereo unspecified)
12,144 to 147 °C,COc1cc(C2CCOC2=O)c([N+](=O)[O-])cc1OC (stereo unspecified)
13,108 to 109 °C,CC(C)(C)c1ccc(N2C[C@@H](COS(C)(=O)=O)CC2=O)cc1
14,31 to 32 °C,CC1(C)NC2(CCCCC2)NC1(C)C
15,154 °C,CCN1c2ncc(CC(=O)c3ccncc3)cc2C(=O)N(C)c2ccc(Cl)nc21
16,41 to 42 °C,CCc1nc(-c2ccc(OCCCc3ccccc3)cc2)no1
17,245 to 247 °C,Cn1cc(C2=C(c3cn(CCCNc4ccc([N+](=O)[O-])cn4)c4ccccc34)C(=O)NC2=O)c2ccccc21
18,135 to 136 °C,CC(C)(C)[Si](C)(C)Oc1ccc(NC(=O)CN2CCC(O)(Cc3ccc(Cl)cc3)CC2)cc1
19,291 °C,C(=Cc1ccc2cc(C=Cc3ccccc3)ccc2c1)c1ccccc1
20,98.7 to 99.7 °C,c1ccc(N=C2SCS2)nc1
21,251 to 255 °C,N#Cc1ccc(N2CCN(Cc3cnc4c(c3)NC(=O)[C@@H]3CCCN43)CC2)cc1F
22,142 to 144 °C,COc1ccccc1C(=O)CN1c2nc(-c3ccncc3)cc(=O)n2CCC1c1ccccc1 (stereo unspecified)

# The next lines start with the molecule.
row,SMILES,melting point
1,C=CCOc1ccc(-c2cc3ccccc3[nH]2)cc1,214 °C
2,CN(C(CCn1c(=O)[nH]c2ccsc2c1=O)C(=O)O)S(=O)(=O)c1ccc(Oc2ccccc2)cc1 (stereo unspecified),218 to 219 °C
3,CCOP(=O)(/C=C/C=C/c1cn(-c2ccccc2)nc1OCc1ccc(OCc2nc(-c3ccco3)oc2C)c(OC)c1)OCC,143 to 144 °C
4,Nc1cccc(C(=O)c2ccc(Cl)cc2)c1,114 to 115 °C
5,CCOC(=O)c1ccc(-c2ncc(C#Cc3ccccc3)s2)s1,137 to 141 °C
6,COc1ncnc(OC)c1NC(N)=S,210 °C
7,CCOC(=O)C1=C(C)NC(=S)N(C(=O)OCC)C1c1cccc(C(F)(F)F)c1 (stereo unspecified),98 to 100 °C
8,Cc1cc(CCCCCOc2cc(Cl)c(-c3nnco3)c(Cl)c2)on1,73 to 74 °C
9,CCCCCc1cn(CCCC)c(=O)n1Cc1ccc(-c2ccccc2-c2nnn[nH]2)nc1,176 to 177 °C
10,CNc1nc(-c2cccc(NC(=O)c3cccc(OC)c3)c2)c2cc(OC)c(OC)cc2n1,193 to 195 °C
11,Nc1csc2ccc([N+](=O)[O-])cc12,155 to 158 °C
12,CC(C)(C)c1ccc(NC(Nc2ccc(C(C)(C)C)cc2)Nc2ccc(C(C)(C)C)cc2)cc1,157 to 158 °C
13,COc1ncc(OC)c(NN)n1,115 to 117 °C
14,OC1(c2ccc(-c3ccccc3)nc2)CN2CCC1CC2 (stereo unspecified),214 °C
15,CC(=O)NCC1CN(c2ccc(N(C)C=O)c(F)c2)C(=O)O1 (stereo unspecified),116 to 117 °C
16,Cc1nc(OC(F)F)c(C#N)c(N2CCc3ccccc3CC2)n1,143 °C
17,COC(=O)CCCCCSC1=CC(OC2CCCCO2)CC1=O (stereo unspecified),41 to 42 °C
18,CCCOc1ccccc1-c1cc(C)c(C(=O)O)c(=O)[nH]1,175 to 177 °C
19,O=C1c2ccccc2C2(O)Oc3c(ccc(Cl)c3Cl)C12O (stereo unspecified),142 to 150 °C
